Measurements: patent US12636294B2, “Compositions and methods for the treatment or prevention of traumatic brain injury” (priority 2019, dated 2026)

Columns and labels:
[1] = tested on: rat model of TBI induced by controlled cortical impact (CCI); experiment: Morris Water Maze (MWM), spatial learning and memory after CCI injury; assay type: in vivo, Sprague-Dawley (SD) rats; conditions: observed; for E (normalised activity value used to calculate synergy), MWM proportion of rats that reached the platform / E (normalised activity value used to calculate synergy), MWM instances of rats reaching the platform: (X-placebo)/(sham-placebo); for E (normalised activity value used to calculate synergy), MWM instances of rats reaching the platform: 7-days post-head injury; for Instances of centre of rat corresponding to platform location normalised to the number of rats in group / Number of rats that reached the platform normalised to the total number of rats in each group: MWM 7-days post-head injury; for Instances of centre of rat corresponding to platform location normalised to the number of rats in group: CBD 20 mg/kg I.P LD 15-30 min post-injury + MD x 6, isoflurane 1.5% inhaled LD at 1 hr post-injury; for Number of rats that reached the platform normalised to the total number of rats in each group: CBD 20 mg/kg I.P LD + MD x 6, isoflurane 1.5% inhaled LD
Procedure: (§1) The effect of cannabidiol (CBD) combined with isoflurane therapy was assessed using a rat model of TBI induced by controlled cortical impact (CCI). Briefly, Sprague-Dawley (SD) rats were anaesthetised with 3% pentobarbital sodium before fixing the head in a stereotaxic frame. After performing a craniotomy, a contusion injury (CCI) was induced with an IMP-3000 TBI Impactor with a diameter of 5.0 mm, a depth of 2.5 mm, dwell time of 100 ms and velocity of 5 m/s. Control rats underwent the same surgical procedure, including craniotomy, without CCI.
(§2) The randomised groups are detailed in Table 2.
(§3) Behavioural outcomes following CCI were assessed using the Morris Water Maze (MWM), which assesses cognitive defects after CCI injury (see, e.g., Nunez, 2008, Journal of Visualized Experiments, 897) and the Rotarod test, which assesses changes in motor function (see, e.g., Shiotsuki et al., 2010, Journal of Neuroscience Methods, 189: 180-185).
(§4) The combinatorial neuroprotective effects of CBD and isoflurane were assessed using a rat controlled cortical impact model of TBI. Briefly, head injury is induced in the rats by first performing a craniotomy to remove a small disc of bone from the skull and then using a pneumatic rod to directly impact the exposed brain. Controlled Cortical Impact (CCI) parameters used in this study were 2.5 mm depth, 5 m/s velocity, 100 ms dwell time. Sham control animals underwent an identical surgical procedure, including craniotomy, but without the CCI injury.
(§5) Animals were treated with CBD (20 mg/kg) and isoflurane (1.5%) both alone and in combination (Table 2). A loading dose comprising CBD and isoflurane was administered sequentially, with CBD administered 15-30 min post injury and isoflurane administered 1-2 h after injury. Daily maintenance doses of CBD were administered for six consecutive days after administration of the loading dose.
(§6) To determine the neuroprotective effects associated with the combination of CBD and isoflurane, the MWM, a well-established assay for investigation of spatial learning and memory (Nunez, 2008, supra; D'Hooge et al., 2001, Brain Research Reviews, 36: 60-90), and the Rotarod, a device used to monitor motor coordination (Deacon, 2013, Journal of Visualized Expreiments, e2609-e2609; Shitosuki et al., 2010, supra), were used 7-days post-head injury. The predicted combinatorial effects of CBD and isoflurane were calculated using the Bliss independence principle using the equation: Epred A+B=(EA+EB)−(EAEB)
(§7) The activity of the combination for this equation was calculated as: (X−placebo)/(sham−placebo)
In the MWM a rat is trained to recognise where a platform is located in a water tank over a series of days. It is then released into the tank and monitored for the ability to locate the platform. A lack of ability to locate the platform is indicative of a spatial memory neurocognitive deficit.

[2] = tested on: rat model of TBI induced by controlled cortical impact (CCI); experiment: Rotarod test, motor function after CCI injury; assay type: in vivo, Sprague-Dawley (SD) rats; conditions: observed; for E (normalised activity value used to calculate synergy), Rotarod latencies: (X-placebo)/(sham-placebo); for Latency: Rotarod 7-days post-head injury, CBD 20 mg/kg I.P LD + MD x 6, isoflurane 1.5% inhaled LD
Procedure: as §1, §2, §3, §4, §5, §6, §7

[3] = after inhalation; general statement, no experiment described; cited from earlier work
[4] = general statement, no experiment described; cited from earlier work

C=C(C)[C@@H]1CCC(C)=C[C@H]1c1c(O)cc(CCCCC)cc1O [CBD, cannabidiol]
E (normalised activity value used to calculate synergy), MWM proportion of rats that reached the platform [1]: 0.21
E (normalised activity value used to calculate synergy), MWM instances of rats reaching the platform [1]: −0.2
Instances of centre of rat corresponding to platform location normalised to the number of rats in group [1]: 0.4
Number of rats that reached the platform normalised to the total number of rats in each group [1]: 0.4
E (normalised activity value used to calculate synergy), Rotarod latencies [2]: −0.04
Latency [2]: 17.60 s
Time to achieve significant CNS concentrations [3]: within two minutes

COC(F)(F)C(Cl)Cl [Methoxyflurane, methoxyflurane]
Lipid solubility [4]: highly lipid-soluble
Time to achieve significant CNS concentrations [3]: ≤ 2 min

FC(F)OC(Cl)C(F)(F)F (stereo not drawn) [isoflurane]
E (normalised activity value used to calculate synergy), MWM proportion of rats that reached the platform [1]: 0.50
E (normalised activity value used to calculate synergy), MWM instances of rats reaching the platform [1]: 0.67
Instances of centre of rat corresponding to platform location normalised to the number of rats in group [1]: 0.83
Number of rats that reached the platform normalised to the total number of rats in each group [1]: 0.5
E (normalised activity value used to calculate synergy), Rotarod latencies [2]: −0.09
Latency [2]: 17.33 s
